Reference: paper PMC3511043, “The multicomponent approach to N-methyl peptides: total synthesis of antibacterial (–)-viridic acid and analogues” (Beilstein Journal of Organic Chemistry, 2012)

System: Aliivibrio fischeri
Assay: Aliivibrio fischeri assay: inhibition of bacterial luminescence
Assay type: cell-based
Conditions: inhibition of bacterial luminescence vs untreated bacteria; 96-well plates; concentration series in DMSO/medium (2% v/v); 24 h incubation at 23 °C in the dark; saline BOSS medium (3% NaCl w/w); read-out: IC50 against the Gram-negative bacterium Aliivibrio fischeri
From the text: To our knowledge no biological screening of pure (−)-viridic acid or its analogues has been performed, and due to the potential of natural peptides and peptoids as antibacterial agents, it was decided to investigate their activity against the Gram-negative bacterium Aliivibrio fischeri. […] Although (−)-viridic acid (1) was isolated thirty years ago, this is the first unambiguous report concerning its biological activity. Based upon the results presented above, it seems that the configuration of the stereogenic center has almost no influence on the antibacterial effect of 1.
The Aliivibrio fischeri assay is based on the measurement of the inhibition of bacterial luminescence against a negative control. Bacteria were pregrown on a saline BOSS medium (3% NaCl w/w) whereby at a certain population density, bacterial luminescence will start. The bacterial suspension was diluted, distributed into 96-well microtiter plates (mtp) and the respective compounds were applied as a concentration series as solutions in DMSO/medium (2% v/v) and mixed. The luminescence of bacteria treated with the respective compounds was measured after 24 h incubation at 23 °C in the dark, in relation to controls of untreated bacteria.
1 Neves Filho, R. A. W.; Stark, S. S.; Morejon, M. C.; Westermann, B.;
3 Malkov, A. V.; Stoncius, S.; Mac Dougall, K. N.; Mariani, A.; McGeoch, G. D.; […]

Structure (SMILES)	IC50
CC(C)C(C(=O)Nc1ccccc1C(=O)O)N(C)C(=O)CNC(=O)c1ccccc1N(C)C (racemic) [(±)-1, racemic viridic acid]	38.4 ± 5.8 µM
CC(C)[C@@H](C(=O)Nc1ccccc1C(=O)O)N(C)C(=O)CNC(=O)c1ccccc1N(C)C [(−)-1, (−)-viridic acid]	45 ± 4.4 µM
